According to patent US20030220252A1, “Method for treating a patient with neoplasia by treatment with a gonadotropin releasing hormone analog” (priority 1998, published 2003):

Key:
cGMP-PDE = cGMP-PDE inhibition assay, enzyme purified from HT-29 tumor cells; type: biochemical, human; conditions: for % Inhibition at 100 μM (cGMP PDE): test compounds
[1] = tested on: HT-29 human colon carcinoma cell line; experiment: Growth inhibition of HT-29 cells (SRB assay; trypan blue count); type: cell-based
COX = COX inhibition; type: biochemical; conditions: 100 μM
[2] = tested on: PDE peak B (novel cGMP-specific PDE); experiment: cGMP hydrolysis by PDE peak B isolated from SW-480 cells; type: biochemical, human
PDE peak A (PDE5) = molecular target: T1, PDE peak A (PDE5) (Homo sapiens, UniProt O76074); experiment: cGMP hydrolysis by PDE peak A isolated from SW-480 cells; type: biochemical
T1 construct: SW-480 cells are collected and homogenized; endogenous in cells; host or cells: SW-480 human colon adenocarcinoma cells; supernatant of homogenate fractionated on DEAE-Trisacryl M

HT-29 cells = experiment: Apoptosis and necrosis by morphology (acridine orange/ethidium bromide) in HT-29 cells; type: cell-based, human; conditions: for apoptotic and necrotic cell death, in words: HT-29 cells treated for six days
Procedure: Treatment of cells with test compounds involves either pre- or post-confluent cultures and treatment for two to seven days at various concentrations of the compound in question. Apoptotic cells are measured by combining both the attached and “floating” compartments of the cultures. The protocol for treating tumor cell cultures with sulindac and related compounds to obtain a significant amount of apoptosis has been described in the literature. (See, Piazza, G. A., et al., Cancer Research, 55:3110-16, 1995, which is incorporated herein by reference). The novel features include collecting both floating and attached cells, identification of the optimal treatment times and dose range for observing apoptosis, and identification of optimal cell culture conditions.
Following treatment with a test compound, cultures can be assayed for apoptosis and necrosis by fluorescent microscopy following labeling with acridine orange and ethidium bromide. The method for measuring apoptotic cell number has previously been described by Duke & Cohen, “Morphological And Biochemical Assays Of Apoptosis,” Current Protocols In Immunology, Coligan et al., eds., 3.17.1-3.17.16 (1992, which is incorporated herein by reference).
For example, floating and attached cells can be collected, and aliquots of cells can be centrifuged. The cell pellet can then be resuspended in media and a dye mixture containing acridine orange and ethidium bromide. The mixture can then be examined microscopically for morphological features of apoptosis.
Reference compounds and test compounds were analyzed for their cGMP-specific PDE inhibitory activity in accordance with the protocols for the assay, supra. […] Apoptotic and necrotic cell death was determined as previously described (Duke and Cohen, In: Current Protocols in Immunology, 3.17.1-3.17.16, New York, John Wiley and Sons, 1992). […]
The apoptosis inducing activity for a series of phosphodiesterase inhibitors was determined. […] Apoptosis and necrosis were determined morphologically after acridine orange and ethidium bromide labeling in accordance with the assay described, supra.

[3] = tested on: premalignant lesions in mouse mammary gland organ culture; experiment: Mammary gland organ culture model; type: cell-based
Procedure: For example, female BALB/c mice can be treated with a combination of estradiol and progesterone daily, in order to prime the glands to be responsive to hormones in vitro. The animals are sacrificed and thoracic mammary glands are excised aseptically and incubated for ten days in growth media supplemented with insulin, prolactin, hydrocortisone, and aldosterone. DMBA (7,12-dimethylbenz(a)anthracene) is added to medium to induce the formation of premalignant lesions. Fully developed glands are then deprived of prolactin, hydrocortisone, and aldosterone, resulting in the regression of the glands but not the premalignant lesions.
The test compound is dissolved in DMSO and added to the culture media for the duration of the culture period. At the end of the culture period, the glands are fixed in 10% formalin, stained with alum carmine, and mounted on glass slides. The extent of the area occupied by the mammary lesions can be quantitated by projecting an image of the gland onto a digitation pad. The area covered by the gland is traced on the pad and considered as 100% of the area. The space covered by each of the unregressed structures is also outlined on the digitization pad and quantitated by the computer.
The incidence of forming mammary lesions is the ratio of the glands with mammary lesions to […]. The incidence of mammary lesions in test compound treated glands is compared with that of the untreated glands.
Mammary gland organ culture experiments were performed as previously described (Mehta and Moon, Cancer Research, 46: 5832-5835, 1986). […] The data support the hypothesis that cyclooxygenase inhibition is not necessary for the anti-neoplastic properties of desired compounds.

[4] = Side effects of exisulind on administration; type: in vivo; conditions: reversible
Excerpt: This effect is reversible, and liver enzymes return to normal levels when the administered dose of exisulind returns to the traditionally recommended level or when treatment is discontinued. The most serious side effects of GnRH analogs, on the other hand, are related to decreases serum levels of estrogen and testosterone.

[5] = tested on: cAMP levels in HT-29 cells; experiment: cAMP levels in HT-29 cells by radioimmunoassay; type: cell-based, human; conditions: HT-29 cells treated 30 minutes
Excerpt: It has been observed that a compound which is useful in the practice of this invention (i.e., one that selectively induces apoptosis in neoplastic cells, but not substantially in normal cells) follows a time course consistent with cGMP-specific PDE inhibition. […] The intracellular targets of these drug actions are being studied further, but current data support the concept that the initial rise in cGMP content and the subsequent fall in cAMP content precede apoptosis in neoplastic cells exposed to test compounds useful in this invention. To determine the cyclic AMP content in cell extracts, radioimmunoassay techniques similar to those described above for cGMP are used.

[6] = tested on: cGMP levels in HT-29 cells; experiment: cGMP levels in HT-29 cells by radioimmunoassay; type: cell-based, human; conditions: HT-29 cells treated 30 minutes

| Compound | % Inhibition at 100 μM (cGMP PDE) (cGMP-PDE) | inhibition / sensitivity of the new cGMP-PDE (peak B), in words [2] | inhibition of peak A (PDE5), in words (PDE peak A (PDE5)) | further results |
| --- | --- | --- | --- | --- |
| CCN(CC)CCSC12CC(=O)OC1(C)/C(=C/c1ccc(S(C)(=O)=O)cc1)c1ccc(F)cc12 (racemic) [A, rac-threo-(E)-1-(N,N′-diethylaminoethanethio)-1-(butan-1′,4′-olido)-[3′,4′:1,2]-6-fluoro-2-methyl-3-(p-methylsulfonylbenzylidene)-indan] | <25% |  |  | Growth inhibitory activity, % Inhibition at 100 μM ([1]; 100 μM single dose): 68% |
| CC1=C(CC(=O)O)c2cc(F)ccc2/C1=C\c1ccc(Cl)cc1 [C, (Z)-5-Fluoro-2-methyl-1-(p-chlorobenzylidene)-3-acetic acid] | <25% |  |  |  |
| COc1cc(C=C2C(C)=C(CC(=O)O)c3cc(F)ccc32)cc(OC)c1OC [Compound B, (Z)-5-Fluoro-2-methyl-1-(3,4,5-trimethoxybenzylidene)-3-acetic acid] | <25% |  |  | COX inhibition, in words (COX): did not inhibit COX |
| O=C([O-])C1CCN(c2nc(NCc3ccc4c(c3)OCO4)c3cc(Cl)ccc3n2)CC1.[Na+] [Compound E4021] |  | relatively insensitive |  |  |
| COc1cc(/C=C2/C(C)=C(CC(=O)NCc3ccccc3)c3cc(F)ccc32)cc(OC)c1OC [Compound E, (Z)-5-Fluoro-2-methyl-1-(3,4,5-trimethoxybenzylidene)-3-indenylacetamide, N-benzyl] | 75% | competitively inhibit | competitively inhibit | COX inhibition, in words (COX): did not inhibit COX |
| CC1=C(CC(=O)O)c2cc(F)ccc2/C1=C\c1ccc(S(C)(=O)=O)cc1 [Exisulind, (Z)-5-fluoro-2-methyl-1-[[4-(methylsulfonyl)phenyl]methylene]indene-3-yl acetic acid] |  | inhibits both PDE5 and the new cGMP-PDE | inhibits both PDE5 and the new cGMP-PDE | % Inhibition at 10 μM (cGMP PDE) (cGMP-PDE): 39%; apoptotic and necrotic cell death, in words (HT-29 cells): capable of causing apoptotic cell death without inducing necrosis; inhibition of premalignant lesions in mammary gland organ culture, in words [3]: effectively inhibit the formation of premalignant lesions; effect at doses higher than the recommended therapeutic levels [4]: elevated levels of liver enzymes |
| CC1(C)C(=O)Nc2ccc(C3=NNC(=O)CC3)cc21 [Indolidan] |  | relatively insensitive |  |  |
| COc1ccc(C2CNC(=O)C2)cc1OC1CCCC1 (stereo not drawn) [Rolipram] |  | relatively insensitive |  | effect on levels of cAMP, in words [5]: increased cAMP levels |
| CCCc1nn(C)c2c(=O)[nH]c(-c3cc(S(=O)(=O)N4CCN(C)CC4)ccc3OCC)nc12 [Sildenafil] |  | relatively insensitive | inhibited activity of peak A |  |
| CSc1ccc(/C=C2/C(C)=C(CC(=O)O)c3cc(F)ccc32)cc1 [Sulindac sulfide] |  | competitively inhibit | competitively inhibit | % Inhibition at 10 μM (cGMP PDE) (cGMP-PDE): 97%; increase of the levels of cGMP [6]: greater than 50%; effect on levels of cAMP, in words [5]: unaffected; growth inhibition by counting viable cells after trypan blue staining, in words ([1]; 120 μM, time course): capable of inhibiting tumor cell growth; apoptosis by morphological determination, in words (HT-29 cells; 120 μM, time course): increase in apoptosis; apoptotic and necrotic cell death, in words (HT-29 cells): capable of causing apoptotic cell death without inducing necrosis; inhibition of premalignant lesions in mammary gland organ culture, in words [3]: inactive |
| CCOC(=O)C1=C[C@]2(CC)CCCN3CCc4c(n1c1ccccc41)[C@@H]32 [Vinpocetine] |  | relatively insensitive |  |  |
| CCCOc1ccccc1-c1nc2nn[nH]c2c(=O)[nH]1 [Zaprinast] |  | relatively insensitive |  |  |
| CC1=C(CC(=O)O)c2cc(F)ccc2/C1=C/c1ccc([S+](C)[O-])cc1 (stereo not drawn) [sulindac sulfoxide] |  |  |  | inhibition of premalignant lesions in mammary gland organ culture, in words [3]: effectively inhibit the formation of premalignant lesions |
